This passage reports Activity results from ChEMBL document CHEMBL2073847, “Inhibition of the CYP3A4-mediated metabolism and P-glycoprotein-mediated transport of the HIV-1 protease inhibitor saquinavir by grapefruit juice components” (Br J Clin Pharmacol, 1999).

Structures are written as SMILES.

Series [1] concerns the target T1, ATP-dependent translocase ABCB1 (Homo sapiens, UniProt P08183). Kind of series: TP_TRANSPORTER: inhibition of Saquinavir transepithelial transport (basal to apical) in Caco-2 cells. Type of series: functional, cell-based.
For series [2], the target named is T1, ATP-dependent translocase ABCB1. Kind of series: TP_TRANSPORTER: transepithelial transport (basal to apical) in Caco-2 cells. Type of series: functional, cell-based. In general terms: Caco-2 cells form a polarised layer with tight junctions and transporters.

T1 sequence (P08183 whole entry): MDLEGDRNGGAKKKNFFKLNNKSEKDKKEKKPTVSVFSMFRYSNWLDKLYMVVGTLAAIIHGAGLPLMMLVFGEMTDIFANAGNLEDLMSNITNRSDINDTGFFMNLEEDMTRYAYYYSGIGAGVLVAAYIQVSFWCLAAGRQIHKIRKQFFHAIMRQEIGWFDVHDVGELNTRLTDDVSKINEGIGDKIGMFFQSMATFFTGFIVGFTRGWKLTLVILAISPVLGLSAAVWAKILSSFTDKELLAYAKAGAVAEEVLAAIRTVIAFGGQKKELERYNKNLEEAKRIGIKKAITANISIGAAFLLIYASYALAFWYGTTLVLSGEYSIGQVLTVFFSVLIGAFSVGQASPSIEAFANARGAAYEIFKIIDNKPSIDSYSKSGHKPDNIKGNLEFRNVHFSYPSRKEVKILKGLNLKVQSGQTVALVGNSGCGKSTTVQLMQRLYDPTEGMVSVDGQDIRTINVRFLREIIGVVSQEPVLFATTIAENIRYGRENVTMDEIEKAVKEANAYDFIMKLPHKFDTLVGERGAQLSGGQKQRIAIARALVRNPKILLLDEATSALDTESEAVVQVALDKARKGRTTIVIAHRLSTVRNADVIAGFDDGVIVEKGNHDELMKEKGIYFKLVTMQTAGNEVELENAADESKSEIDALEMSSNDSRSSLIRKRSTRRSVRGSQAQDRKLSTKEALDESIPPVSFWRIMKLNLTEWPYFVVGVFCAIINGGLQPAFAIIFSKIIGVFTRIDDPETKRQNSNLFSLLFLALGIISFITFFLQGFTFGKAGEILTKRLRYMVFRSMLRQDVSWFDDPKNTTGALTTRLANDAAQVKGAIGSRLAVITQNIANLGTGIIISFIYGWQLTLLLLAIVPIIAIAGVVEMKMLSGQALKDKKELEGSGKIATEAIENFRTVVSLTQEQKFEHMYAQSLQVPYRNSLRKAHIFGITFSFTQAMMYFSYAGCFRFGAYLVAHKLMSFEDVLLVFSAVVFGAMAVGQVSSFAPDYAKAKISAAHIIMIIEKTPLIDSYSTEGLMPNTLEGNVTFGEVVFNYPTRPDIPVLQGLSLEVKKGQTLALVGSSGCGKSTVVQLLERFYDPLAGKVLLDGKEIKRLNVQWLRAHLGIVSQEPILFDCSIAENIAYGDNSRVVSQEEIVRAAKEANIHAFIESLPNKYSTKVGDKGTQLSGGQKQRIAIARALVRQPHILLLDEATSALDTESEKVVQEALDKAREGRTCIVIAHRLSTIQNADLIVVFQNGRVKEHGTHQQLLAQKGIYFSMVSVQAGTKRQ

On to `C[C@@H]1O[C@@H](O[C@H]2[C@H](Oc3cc(O)c4c(c3)O[C@H](c3ccc(O)cc3)CC4=O)O[C@H](CO)[C@@H](O)[C@@H]2O)[C@H](O)[C@H](O)[C@H]1O` [NARINGIN], for which the Activity result in series [1] is “inhibitor [+]”.
For `C/C(=C\COc1c2ccoc2cc2oc(=O)ccc12)CC[C@@H](O)C(C)(C)O`, in series [1], the Activity entry was “is not an inhibitor [-]”.
On the same count and under the same terms, in the case of `O=C1C[C@@H](c2ccc(O)cc2)Oc2cc(O)cc(O)c21` [NARINGENIN] it was “inhibitor [+]”; in that of `CC(C)=CCC/C(C)=C/COc1c2ccoc2cc2oc(=O)ccc12` [BERGAMOTTIN], “is not an inhibitor [-]”.
Turning to `CC(C)(C)NC(=O)[C@@H]1C[C@@H]2CCCC[C@@H]2CN1C[C@@H](O)[C@H](Cc1ccccc1)NC(=O)[C@H](CC(N)=O)NC(=O)c1ccc2ccccc2n1` [SAQUINAVIR], the Activity entry in series [2] is “substrate [+]”.
